According to US6355799B1, “Substituted benzene compounds, process for their preparation, and herbicidal and defoliant compositions containing them” (ISK Americas Incorporated, priority 1997, dated 2002):

How the values were obtained:
Type in all cases: in vivo
[1] = system: redroot pigweed (Amaranthus retroflexus, AMARE); assay: Pre-emerge test, greenhouse herbicide activity screening; details: pre-emerge, 14 days after application, scale 0-100
Outline: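 Rating: 0–100 visual injury, 14 DAA. Application: acetone, 187 l/ha, 15–1000 g ai/ha, flat-fan track sprayer with nozzle 40–45 cm above soil or canopy. Post-emerge runs used 0.25% v/v surfactant on 2–3 leaf plants.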

[2] = system: barnyardgrass (Echinochloa crus-galli, ECHCG); assay: as above; details: pre-emerge, 14 days after application, scale 0-100
Outline: (§1)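 Plants grown in 10 cm pots of sandy loam mix received acetone-dissolved compounds through a moving flat-fan nozzle. Doses ranged from 15 to 1000 g ai/ha. Pre-emerge pots were seeded one day earlier, post-emerge pots 8–21 days earlier. Fourteen days on, each pot was graded 0–100 for damage.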

[3] = system: green foxtail (Setaria viridis, SETVI); assay: as above; details: pre-emerge, 14 days after application, scale 0-100
Outline: as §1

[4] = system: ivyleaf morningglory (Ipomoea hederacea, IPOHE); assay: as above; details: pre-emerge, 14 days after application, scale 0-100
Outline: as §1

[5] = system: johnsongrass (Sorghum halepense, SORHA); assay: as above; details: pre-emerge, 14 days after application, scale 0-100
Outline: as §1

[6] = system: lambsquarters (Chenopodium album, CHEAL); assay: as above; details: pre-emerge, 14 days after application, scale 0-100
Outline: as §1

[7] = system: large crabgrass (Digitaria sanguinalis, DIGSA); assay: as above; details: pre-emerge, 14 days after application, scale 0-100
Outline: as §1

[8] = system: sicklepod (Cassia obtusifolia, CASOB); assay: as above; details: pre-emerge, 14 days after application, scale 0-100
Outline: as §1

[9] = system: velvetleaf (Abutilon theophrasti, ABUTH); assay: as above; details: pre-emerge, 14 days after application, scale 0-100
Outline: as §1

[10] = system: field corn (Zea mays L., var. Dekalb 535, CORN); assay: Pre-emerge test, crop safety; details: pre-emerge, 14 days after application, scale 0-100
Outline: (§2)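 Visual ratings on a 0-100 scale (0 no damage, 100 all plants dead) were taken at 14 days after treatment. Rates of 15-1000 g ai/ha in acetone, 187 l/ha, were sprayed onto soil one day after planting (pre-emerge) or onto 2-3 leaf plants with 0.25% v/v surfactant (post-emerge).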

[11] = system: upland rice (Oryza sp., var. Tebonnet, RICE); assay: Pre-emerge test, crop safety; details: pre-emerge, 14 days after application, scale 0-100
Outline: as §2

[12] = system: barnyardgrass (Echinochloa crus-galli, ECHCG); assay: Post-emerge test, greenhouse herbicide activity screening; details: post-emerge, 14 days after application, rating scale 0-100
Outline: (§3)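 Compounds in acetone were track-sprayed at 187 l/ha, 15–1000 g ai/ha, onto sandy loam pots. Pre-emerge seeds were sown one day before spraying, with surface watering afterwards. Post-emerge plants were at the 2–3 leaf stage and sprayed with 0.25% v/v non-ionic surfactant. Injury was rated 0–100 at 14 days.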

[13] = system: green foxtail (Setaria viridis, SETVI); assay: as above; details: post-emerge, 14 days after application, rating scale 0-100
Outline: as §3

[14] = system: ivyleaf morningglory (Ipomoea hederacea, IPOHE); assay: as above; details: post-emerge, 14 days after application, rating scale 0-100
Outline: as §3

[15] = system: johnsongrass (Sorghum halepense, SORHA); assay: as above; details: post-emerge, 14 days after application, rating scale 0-100
Outline: as §3

[16] = system: lambsquarters (Chenopodium album, CHEAL); assay: as above; details: post-emerge, 14 days after application, rating scale 0-100
Outline: as §3

[17] = system: large crabgrass (Digitaria sanguinalis, DIGSA); assay: as above; details: post-emerge, 14 days after application, rating scale 0-100
Outline: as §3

[18] = system: redroot pigweed (Amaranthus retroflexus, AMARE); assay: as above; details: post-emerge, 14 days after application, rating scale 0-100
Outline: as §3

[19] = system: sicklepod (Cassia obtusifolia, CASOB); assay: as above; details: post-emerge, 14 days after application, rating scale 0-100
Outline: as §3

[20] = system: velvetleaf (Abutilon theophrasti, ABUTH); assay: as above; details: post-emerge, 14 days after application, rating scale 0-100
Outline: as §3

[21] = system: field corn (Zea mays L., var. Dekalb 535, CORN); assay: Post-emerge test, crop safety; details: post-emerge, 14 days after application, rating scale 0-100
Outline: (§4)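 Each test used a mechanized track sprayer delivering 187 l/ha of acetone solution at 15–1000 g ai/ha. Post-emerge foliage at 2–3 leaves was treated with added 0.25% v/v non-ionic surfactant and bottom-watered only. Injury was assessed on day 14, where 100 means total kill.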

[22] = system: upland rice (Oryza sp., var. Tebonnet, RICE); assay: Post-emerge test, crop safety; details: post-emerge, 14 days after application, rating scale 0-100
Outline: as §4

COc1c(Br)cc(F)c(-n2c(=O)cc(C(F)(F)F)n(C)c2=O)c1NC(=O)C=Cc1ccccc1 [2-177]
phytotoxicity rating AMARE ([1]; 63 g ai/ha): 100
phytotoxicity rating AMARE ([1]; 250 g ai/ha): 100
phytotoxicity rating ECHCG ([2]; 63 g ai/ha): 0
phytotoxicity rating ECHCG ([2]; 250 g ai/ha): 40
phytotoxicity rating SETVI ([3]; 63 g ai/ha): 40
phytotoxicity rating SETVI ([3]; 250 g ai/ha): 70
phytotoxicity rating IPOHE ([4]; 63 g ai/ha): 40
phytotoxicity rating IPOHE ([4]; 250 g ai/ha): 90
phytotoxicity rating SORHA ([5]; 63 g ai/ha): 0
phytotoxicity rating SORHA ([5]; 250 g ai/ha): 30
phytotoxicity rating CHEAL ([6]; 63 g ai/ha): 100
phytotoxicity rating CHEAL ([6]; 250 g ai/ha): 100
phytotoxicity rating DIGSA ([7]; 63 g ai/ha): 30
phytotoxicity rating DIGSA ([7]; 250 g ai/ha): 70
phytotoxicity rating CASOB ([8]; 63 g ai/ha): 0
phytotoxicity rating CASOB ([8]; 250 g ai/ha): 40
phytotoxicity rating ABUTH ([9]; 63 g ai/ha): 70
phytotoxicity rating ABUTH ([9]; 250 g ai/ha): 100
phytotoxicity rating CORN (crop damage) ([10]; 63 g ai/ha): 0
phytotoxicity rating CORN (crop damage) ([10]; 250 g ai/ha): 10
phytotoxicity rating RICE (crop damage) ([11]; 63 g ai/ha): 10
phytotoxicity rating RICE (crop damage) ([11]; 250 g ai/ha): 20
ECHCG phytotoxicity rating ([12]; 63 g ai/ha): 20
ECHCG phytotoxicity rating ([12]; 250 g ai/ha): 40
SETVI phytotoxicity rating ([13]; 63 g ai/ha): 45
SETVI phytotoxicity rating ([13]; 250 g ai/ha): 60
IPOHE phytotoxicity rating ([14]; 63 g ai/ha): 100
IPOHE phytotoxicity rating ([14]; 250 g ai/ha): 100
SORHA phytotoxicity rating ([15]; 63 g ai/ha): 30
SORHA phytotoxicity rating ([15]; 250 g ai/ha): 40
CHEAL phytotoxicity rating ([16]; 63 g ai/ha): 100
CHEAL phytotoxicity rating ([16]; 250 g ai/ha): 100
DIGSA phytotoxicity rating ([17]; 63 g ai/ha): 30
DIGSA phytotoxicity rating ([17]; 250 g ai/ha): 50
AMARE phytotoxicity rating ([18]; 63 g ai/ha): 100
AMARE phytotoxicity rating ([18]; 250 g ai/ha): 100
CASOB phytotoxicity rating ([19]; 63 g ai/ha): 100
CASOB phytotoxicity rating ([19]; 250 g ai/ha): 100
ABUTH phytotoxicity rating ([20]; 63 g ai/ha): 100
ABUTH phytotoxicity rating ([20]; 250 g ai/ha): 100
CORN phytotoxicity rating (crop damage) ([21]; 63 g ai/ha): 15
CORN phytotoxicity rating (crop damage) ([21]; 250 g ai/ha): 20
RICE phytotoxicity rating (crop damage) ([22]; 63 g ai/ha): 50
RICE phytotoxicity rating (crop damage) ([22]; 250 g ai/ha): 60

COc1c(Br)cc(F)c(-n2c(=O)cc(C(F)(F)F)n(C)c2=O)c1N(C(=O)C=Cc1ccccc1)C(=O)C=Cc1ccccc1 [2-178]
phytotoxicity rating AMARE ([1]; 63 g ai/ha): 0
phytotoxicity rating AMARE ([1]; 250 g ai/ha): 0
phytotoxicity rating ECHCG ([2]; 63 g ai/ha): 0
phytotoxicity rating ECHCG ([2]; 250 g ai/ha): 0
phytotoxicity rating SETVI ([3]; 63 g ai/ha): 0
phytotoxicity rating SETVI ([3]; 250 g ai/ha): 0
phytotoxicity rating IPOHE ([4]; 63 g ai/ha): 0
phytotoxicity rating IPOHE ([4]; 250 g ai/ha): 0
phytotoxicity rating SORHA ([5]; 63 g ai/ha): 0
phytotoxicity rating SORHA ([5]; 250 g ai/ha): 0
phytotoxicity rating CHEAL ([6]; 63 g ai/ha): 20
phytotoxicity rating CHEAL ([6]; 250 g ai/ha): 0
phytotoxicity rating DIGSA ([7]; 63 g ai/ha): 0
phytotoxicity rating DIGSA ([7]; 250 g ai/ha): 0
phytotoxicity rating CASOB ([8]; 63 g ai/ha): 0
phytotoxicity rating CASOB ([8]; 250 g ai/ha): 0
phytotoxicity rating ABUTH ([9]; 63 g ai/ha): 0
phytotoxicity rating ABUTH ([9]; 250 g ai/ha): 0
phytotoxicity rating CORN (crop damage) ([10]; 63 g ai/ha): 0
phytotoxicity rating CORN (crop damage) ([10]; 250 g ai/ha): 0
phytotoxicity rating RICE (crop damage) ([11]; 63 g ai/ha): 0
phytotoxicity rating RICE (crop damage) ([11]; 250 g ai/ha): 0
ECHCG phytotoxicity rating ([12]; 63 g ai/ha): 0
ECHCG phytotoxicity rating ([12]; 250 g ai/ha): 0
SETVI phytotoxicity rating ([13]; 63 g ai/ha): 0
SETVI phytotoxicity rating ([13]; 250 g ai/ha): 0
IPOHE phytotoxicity rating ([14]; 63 g ai/ha): 30
IPOHE phytotoxicity rating ([14]; 250 g ai/ha): 20
SORHA phytotoxicity rating ([15]; 63 g ai/ha): 0
SORHA phytotoxicity rating ([15]; 250 g ai/ha): 0
CHEAL phytotoxicity rating ([16]; 63 g ai/ha): 30
CHEAL phytotoxicity rating ([16]; 250 g ai/ha): 40
DIGSA phytotoxicity rating ([17]; 63 g ai/ha): 0
DIGSA phytotoxicity rating ([17]; 250 g ai/ha): 0
AMARE phytotoxicity rating ([18]; 63 g ai/ha): 50
AMARE phytotoxicity rating ([18]; 250 g ai/ha): 70
CASOB phytotoxicity rating ([19]; 63 g ai/ha): 0
CASOB phytotoxicity rating ([19]; 250 g ai/ha): 0
ABUTH phytotoxicity rating ([20]; 63 g ai/ha): 40
ABUTH phytotoxicity rating ([20]; 250 g ai/ha): 50
CORN phytotoxicity rating (crop damage) ([21]; 63 g ai/ha): 0
CORN phytotoxicity rating (crop damage) ([21]; 250 g ai/ha): 0
RICE phytotoxicity rating (crop damage) ([22]; 63 g ai/ha): 0
RICE phytotoxicity rating (crop damage) ([22]; 250 g ai/ha): 0
